Test results taken from patent US5668152A, “Protein kinase C inhibitors” (priority 1995, dated 1997).
Like-named read-outs stand apart in the source and are kept apart here.

Key:
[1] = target: protein kinase C gamma (Homo sapiens, UniProt P05129); assay: PKC Enzyme assay, gamma isozyme; assay type: biochemical
Method: (§1) PKC enzymes=alpha, beta I, beta II, gamma, delta, epsilon, eta and zeta.
(§2) Assay components in a total volume of 250 μL are the following:
(§3) Vesicles consisting of 120 μg/mL phosphatidylserine (Avanti Polar Lipids) and sufficient diacylglycerol (Avanti Polar Lipids) to activate the enzyme to maximum activity in 20 mM HEPES buffer (Sigma, St. Louis, Mo.), pH 7.5, 940 μM calcium chloride (Sigma, St. Louis, Mo.) for assaying the alpha, beta I, beta II and gamma enzyme only, 1 mM EGTA for all the enzymes, 10 mM magnesium chloride (Sigma, St. Louis, Mo.) and 30 μM (gamma-32P) ATP (DuPont). For all the enzymes either histone type HL (Worthington) or myelin basic protein is used as substrate. The assay is started by addition of protein kinase C enzyme incubated at 30° C. for 10 minutes and stopped by adding 0.5 mL of cold trichloroacetic acid (Amresco) followed by 100 μL of 1 mg/mL bovine serum albumin (Sigma, St. Louis, Mo.). The precipitate is collected by vacuum filtration on glass fiber filters employing a TOMTEC™ filtration system and quantified by counting in a beta scintillation counter.

[2] = target: T1, protein kinase C zeta (Homo sapiens, UniProt Q05513); assay: PKC Enzyme assay, zeta isozyme; assay type: biochemical; conditions: PKC zeta; 30 μM ATP, 30° C., 10 minutes; read-out: IC50 ζ
T1 sequence (Q05513 1-592): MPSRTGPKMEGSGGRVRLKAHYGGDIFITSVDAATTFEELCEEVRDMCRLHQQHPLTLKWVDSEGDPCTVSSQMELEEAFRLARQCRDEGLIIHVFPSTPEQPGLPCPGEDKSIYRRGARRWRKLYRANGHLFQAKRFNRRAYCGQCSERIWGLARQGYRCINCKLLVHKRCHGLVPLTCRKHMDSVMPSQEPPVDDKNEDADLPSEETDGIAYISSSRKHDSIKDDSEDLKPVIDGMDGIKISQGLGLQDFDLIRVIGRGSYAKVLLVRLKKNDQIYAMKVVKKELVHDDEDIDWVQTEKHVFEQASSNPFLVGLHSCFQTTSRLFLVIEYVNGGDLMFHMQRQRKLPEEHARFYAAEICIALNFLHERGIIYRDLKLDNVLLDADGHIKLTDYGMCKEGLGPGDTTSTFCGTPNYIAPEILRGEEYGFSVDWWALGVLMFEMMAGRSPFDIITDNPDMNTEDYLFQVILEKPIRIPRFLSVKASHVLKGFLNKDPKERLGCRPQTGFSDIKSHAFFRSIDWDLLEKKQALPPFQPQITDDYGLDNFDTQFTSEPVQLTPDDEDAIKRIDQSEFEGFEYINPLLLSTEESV
Method: as §1, §2, §3

[3] = target: T2, protein kinase C epsilon (Homo sapiens, UniProt Q02156); assay: PKC Enzyme assay, epsilon isozyme; assay type: biochemical
T2 sequence (Q02156 1-737): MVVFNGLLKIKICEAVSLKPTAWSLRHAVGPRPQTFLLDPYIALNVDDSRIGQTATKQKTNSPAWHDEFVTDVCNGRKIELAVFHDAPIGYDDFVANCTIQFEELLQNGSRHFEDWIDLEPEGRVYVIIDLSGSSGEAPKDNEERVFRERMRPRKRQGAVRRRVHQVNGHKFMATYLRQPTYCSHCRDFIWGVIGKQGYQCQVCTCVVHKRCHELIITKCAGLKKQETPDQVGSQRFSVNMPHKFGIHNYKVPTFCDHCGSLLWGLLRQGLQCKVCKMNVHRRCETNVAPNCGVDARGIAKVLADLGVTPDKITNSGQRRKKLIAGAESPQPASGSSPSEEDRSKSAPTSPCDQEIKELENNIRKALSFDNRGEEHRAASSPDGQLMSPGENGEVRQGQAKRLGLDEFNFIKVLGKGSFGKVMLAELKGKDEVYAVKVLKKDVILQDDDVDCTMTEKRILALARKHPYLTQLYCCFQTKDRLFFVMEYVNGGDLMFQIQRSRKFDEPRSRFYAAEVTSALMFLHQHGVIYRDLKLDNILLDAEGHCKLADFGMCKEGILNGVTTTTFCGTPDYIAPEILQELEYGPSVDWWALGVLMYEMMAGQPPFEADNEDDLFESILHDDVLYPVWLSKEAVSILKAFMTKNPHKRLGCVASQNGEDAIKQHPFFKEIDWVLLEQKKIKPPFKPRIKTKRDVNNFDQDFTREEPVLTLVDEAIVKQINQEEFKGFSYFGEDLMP
Method: as §1, §2, §3

[4] = target: protein kinase C delta (Homo sapiens, UniProt Q05655); assay: biochemical
Sequence of protein kinase C delta (Q05655 whole entry): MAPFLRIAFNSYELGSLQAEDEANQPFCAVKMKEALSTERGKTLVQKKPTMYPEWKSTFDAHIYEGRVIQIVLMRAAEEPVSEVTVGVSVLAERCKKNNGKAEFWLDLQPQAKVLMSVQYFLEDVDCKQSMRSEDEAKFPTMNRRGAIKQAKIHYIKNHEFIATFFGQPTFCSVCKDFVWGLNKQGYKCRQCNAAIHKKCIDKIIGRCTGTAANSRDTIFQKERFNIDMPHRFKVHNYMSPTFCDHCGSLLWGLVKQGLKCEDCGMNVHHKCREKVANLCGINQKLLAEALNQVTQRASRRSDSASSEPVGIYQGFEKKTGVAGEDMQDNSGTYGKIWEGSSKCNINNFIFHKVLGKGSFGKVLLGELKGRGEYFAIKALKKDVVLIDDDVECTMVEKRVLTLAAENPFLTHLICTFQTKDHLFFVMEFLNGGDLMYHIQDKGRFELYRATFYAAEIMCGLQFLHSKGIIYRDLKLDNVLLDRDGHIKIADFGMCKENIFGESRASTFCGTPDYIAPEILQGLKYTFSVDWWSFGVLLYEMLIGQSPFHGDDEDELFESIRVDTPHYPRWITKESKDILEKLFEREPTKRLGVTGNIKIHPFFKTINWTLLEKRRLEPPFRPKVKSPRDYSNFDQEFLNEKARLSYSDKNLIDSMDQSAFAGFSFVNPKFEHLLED
Method: as §1, §2, §3

[5] = target: protein kinase C eta (Homo sapiens, UniProt P24723); assay: PKC Enzyme assay, eta isozyme; assay type: biochemical
Sequence of protein kinase C eta (P24723 whole entry): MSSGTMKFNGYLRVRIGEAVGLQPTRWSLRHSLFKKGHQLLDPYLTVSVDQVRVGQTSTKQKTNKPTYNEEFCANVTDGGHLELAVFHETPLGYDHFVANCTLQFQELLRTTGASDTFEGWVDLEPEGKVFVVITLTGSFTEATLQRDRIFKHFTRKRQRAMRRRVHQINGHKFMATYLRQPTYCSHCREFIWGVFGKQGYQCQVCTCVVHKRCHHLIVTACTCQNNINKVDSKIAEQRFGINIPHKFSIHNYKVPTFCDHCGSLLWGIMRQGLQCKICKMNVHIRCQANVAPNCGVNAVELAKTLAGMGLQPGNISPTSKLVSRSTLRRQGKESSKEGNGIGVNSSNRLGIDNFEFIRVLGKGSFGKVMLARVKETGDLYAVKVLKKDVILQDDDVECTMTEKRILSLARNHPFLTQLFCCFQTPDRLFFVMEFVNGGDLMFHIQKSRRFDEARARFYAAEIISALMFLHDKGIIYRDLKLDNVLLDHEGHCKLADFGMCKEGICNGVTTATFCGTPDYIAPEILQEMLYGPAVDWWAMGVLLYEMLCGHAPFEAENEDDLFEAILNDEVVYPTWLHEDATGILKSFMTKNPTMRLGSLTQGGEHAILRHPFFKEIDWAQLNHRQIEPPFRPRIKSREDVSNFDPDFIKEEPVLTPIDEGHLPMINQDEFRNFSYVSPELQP
Method: as §1, §2, §3

[6] = target: protein kinase C beta-1 (Homo sapiens, UniProt P05771); assay: PKC Enzyme assay, beta I isozyme; assay type: biochemical
Sequence of protein kinase C beta-1 (P05771 whole entry): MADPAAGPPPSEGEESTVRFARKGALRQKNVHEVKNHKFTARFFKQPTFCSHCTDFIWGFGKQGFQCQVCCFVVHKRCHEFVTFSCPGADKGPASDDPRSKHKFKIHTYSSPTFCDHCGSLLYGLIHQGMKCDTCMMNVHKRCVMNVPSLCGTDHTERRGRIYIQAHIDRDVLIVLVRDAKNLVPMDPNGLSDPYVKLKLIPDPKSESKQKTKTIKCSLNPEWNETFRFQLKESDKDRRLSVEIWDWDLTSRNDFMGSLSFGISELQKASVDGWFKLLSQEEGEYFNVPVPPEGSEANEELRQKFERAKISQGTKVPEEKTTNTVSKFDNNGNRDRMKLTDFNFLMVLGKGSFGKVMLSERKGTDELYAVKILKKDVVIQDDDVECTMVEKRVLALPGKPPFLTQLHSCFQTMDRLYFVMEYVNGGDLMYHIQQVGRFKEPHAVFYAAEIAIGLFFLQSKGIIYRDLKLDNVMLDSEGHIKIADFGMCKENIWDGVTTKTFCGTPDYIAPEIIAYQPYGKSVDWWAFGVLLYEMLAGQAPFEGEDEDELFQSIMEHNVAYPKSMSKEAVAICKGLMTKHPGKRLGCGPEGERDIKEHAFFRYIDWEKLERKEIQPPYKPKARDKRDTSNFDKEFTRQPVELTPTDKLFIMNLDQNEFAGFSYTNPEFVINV
Method: as §1, §2, §3

[7] = target: protein kinase C alpha (Homo sapiens, UniProt P17252); assay: PKC Enzyme assay, alpha isozyme; assay type: biochemical
Method: as §1, §2, §3

[8] = target: protein kinase C beta-2 (Homo sapiens, UniProt P05771); assay: PKC Enzyme assay, beta II isozyme; assay type: biochemical
Sequence of protein kinase C beta-2 (P05771 1-673 isoform P05771-2): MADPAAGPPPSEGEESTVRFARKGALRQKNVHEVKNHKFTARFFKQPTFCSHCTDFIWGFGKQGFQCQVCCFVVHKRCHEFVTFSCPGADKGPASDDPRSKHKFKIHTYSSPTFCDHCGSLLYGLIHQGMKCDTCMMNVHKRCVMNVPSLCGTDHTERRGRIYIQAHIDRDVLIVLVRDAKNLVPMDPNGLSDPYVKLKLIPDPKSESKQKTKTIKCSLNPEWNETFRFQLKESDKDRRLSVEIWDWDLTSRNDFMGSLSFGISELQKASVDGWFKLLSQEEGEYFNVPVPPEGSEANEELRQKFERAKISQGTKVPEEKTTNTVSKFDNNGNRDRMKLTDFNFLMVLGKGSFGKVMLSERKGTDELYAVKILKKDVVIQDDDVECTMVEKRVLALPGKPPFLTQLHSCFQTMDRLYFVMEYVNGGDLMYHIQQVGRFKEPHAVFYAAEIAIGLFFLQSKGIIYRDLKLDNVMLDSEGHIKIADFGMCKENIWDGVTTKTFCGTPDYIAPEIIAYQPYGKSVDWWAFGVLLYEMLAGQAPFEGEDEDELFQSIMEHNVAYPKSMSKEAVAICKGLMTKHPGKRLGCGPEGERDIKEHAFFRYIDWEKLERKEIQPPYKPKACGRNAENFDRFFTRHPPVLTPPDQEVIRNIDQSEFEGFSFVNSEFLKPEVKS
Method: as §1, §2, §3

[9] = PKC gamma, 30 μM ATP, 30° C., 10 minutes, read-out: IC50 γ
[10] = PKC epsilon, 30 μM ATP, 30° C., 10 minutes, read-out: IC50 ε
[11] = PKC delta, 30 μM ATP, 30° C., 10 minutes, read-out: IC50 δ
[12] = PKC eta, 30 μM ATP, 30° C., 10 minutes, read-out: IC50 η
[13] = PKC beta-1, 30 μM ATP, 30° C., 10 minutes, read-out: IC50 β1
[14] = PKC alpha, 30 μM ATP, 30° C., 10 minutes, read-out: IC50 α
[15] = PKC beta-2, 30 μM ATP, 30° C., 10 minutes, read-out: IC50 β2

SMILES | IC50 [1, 9] | IC50 [2] | IC50 [3, 10] | IC50 [4, 11] | IC50 [5, 12] | IC50 [6, 13] | IC50 [7, 14] | IC50 [8, 15] | IC50 [1] | IC50 [3] | IC50 [4] | IC50 [5] | IC50 [6] | IC50 [7] | IC50 [8]
Cc1c(C2=C(c3cn(CN(C)C)c4ccccc34)C(=O)NC2=O)c2ccccc2n1CCCN(C)C [Example 15] | 4000 nM | 37000 nM | 5500 nM | 3400 nM | 1300 nM | 140 nM | 4900 nM | 100 nM |  |  |  |  |  |  | 
O=C1NC(=O)C(c2cn(CCCO)c3ccccc23)=C1c1c[nH]c2ccccc12 [Example 11] | 1100 nM | 16000 nM | 680 nM | 410 nM | 100 nM | 39 nM | 450 nM | 46 nM |  |  |  |  |  |  | 
Cn1cc(C2=C(c3cn(C4CCN(CC5CC5)CC4)c4ccccc34)C(=O)NC2=O)c2ccccc21 [Example 39, 3-[1-N-(1-N-(Cyclopropylmethylene)-piperidin-4-yl)-indol-3-yl]-4-(1-N-(methyl)-indol-3-yl)-1H-pyrrole-2,5-dione] | 400 nM | 9000 nM | 900 nM | 400 nM | 50 nM | 30 nM | 300 nM | 10 nM |  |  |  |  |  |  | 
Cn1cc(C2=C(c3cn(C4CCN(C(=O)OC(C)(C)C)CC4)c4ccccc34)C(=O)NC2=O)c2ccccc21 [Example 6, 3-(1-[4-(1-t-butoxycarbonyl)-piperidinyl]-3-indolyl)-4-(1-methyl-3-indolyl)-1H-pyrrole-2,5-dione] |  |  |  |  |  |  |  |  | 5300 nM | 4400 nM | 7300 nM | 300 nM | 220 nM | 6100 nM | 82 nM
CN(C)CCCn1cc(C2=C(c3cn(C)c4ccccc34)C(=O)NC2=O)c2ccccc21 [Example 13] | 1700 nM | 25000 nM | 3600 nM | 930 nM | 470 nM |  |  |  |  |  |  |  | 140 nM |  | 60 nM
Cn1cc(C2=C(c3cn(C4CCN(Cc5ccccn5)CC4)c4ccccc34)C(=O)NC2=O)c2ccccc21 [Example 49] | 2000 nM | 8000 nM | 300 nM |  |  |  |  |  |  |  |  |  |  |  | 
Cn1cc(C2=C(c3cn(C4CCNCC4)c4ccccc34)C(=O)NC2=O)c2ccccc21 [Example 52] |  | 4000 nM | 1000 nM |  | 200 nM |  |  |  |  |  |  |  |  |  | 
Cn1cc(C2=C(c3cn(C4CCN(Cc5ccccc5)CC4)c4ccccc34)C(=O)NC2=O)c2ccccc21 [Example 4, 3-(1-[4-(1-benzyl)-piperidinyl]-3-indolyl)-4-(1-methyl-3-indolyl)-1H-pyrrole-2,5-dione] | 7000 nM |  | 4000 nM | 6000 nM | 500 nM | 50 nM | 6000 nM | 30 nM |  |  |  |  |  |  | 

Further lines, with some results ahead:

IC50 [1, 9] | IC50 [2] | IC50 [3, 10] | IC50 [4, 11] | IC50 [5, 12] | IC50 [6, 13] | IC50 [7, 14] | IC50 [8, 15] | SMILES | IC50 [1] | IC50 [3] | IC50 [4] | IC50 [5] | IC50 [6] | IC50 [7] | IC50 [8]
1250 nM | 8000 nM | 900 nM | 1000 nM | 520 nM | 81 nM | 1210 nM | 86 nM | Cn1cc(C2=C(c3c[nH]c4ccccc34)C(=O)NC2=O)c2ccccc21 [Example 12] |  |  |  |  |  |  | 
15000 nM | 37000 nM | 4300 nM | 7900 nM | 2500 nM | 1100 nM | 6700 nM | 340 nM | Cn1cc(C2=C(c3cn(CCCCOC4CC(O)C(CN)O4)c4ccccc34)C(=O)NC2=O)c2ccccc21 (centres unmarked) [Example 54] |  |  |  |  |  |  | 
4300 nM | 51000 nM | 6600 nM | 3500 nM | 1700 nM | 410 nM | 3200 nM | 230 nM | Cn1cc(C2=C(c3cn(CCCCOC4CC(O)C(CN)O4)c4ccccc34)C(=O)NC2=O)c2ccccc21 (centres unmarked) [Example 53] |  |  |  |  |  |  | 
30000 nM | 37000 nM |  | 4400 nM | 3000 nM | 240 nM | 9000 nM |  | Cn1cc(C2=C(c3cn(CCOC4OC(CN)C(O)C(O)C4O)c4ccccc34)C(=O)NC2=O)c2ccccc21 (centres unmarked) [Example 66] |  |  |  |  |  |  | 
300 nM |  | 400 nM | 300 nM | 40 nM | 20 nM | 400 nM | 5 nM | CCN1CCC(n2cc(C3=C(c4cn(C)c5ccccc45)C(=O)NC3=O)c3ccccc32)CC1 [Example 40, 3-[1-(1-Ethyl-piperidin-4-yl)-indol-3-yl]-4-(1-methyl-indol-3-yl)-pyrrole-2,5-dione] |  |  |  |  |  |  | 
 | > 100000 nM | > 100000 nM | 9000 nM | 4000 nM | 1600 nM | 10000 nM | 360 nM | Cn1cc(C2=C(c3cn(CCO[C@@H]4O[C@H](CN=[N+]=[N-])[C@H](O)[C@H](O)[C@H]4O)c4ccccc34)C(=O)NC2=O)c2ccccc21 [Example 57] |  |  |  |  |  |  | 
30000 nM | 47000 nM |  | 8400 nM | 3400 nM | 390 nM | 8100 nM |  | Cn1cc(C2=C(c3cn(CCO[C@H]4O[C@H](CN)[C@H](O)[C@H](O)[C@H]4O)c4ccccc34)C(=O)NC2=O)c2ccccc21 [Example 65] |  |  |  |  |  |  | 
